The results in this text go back to patent publication US12139492B2 (Endotarget Inc., priority 2021, dated 2024).

Where two headings read alike, the source gives them in different places.

The target of one test is BTK (Homo sapiens, UniProt Q06187). As to the kind of experiment: Degradation of BTK protein in Namalwa cells (Western blot; DC50, Dmax). Particulars: for DC50: cell line not given.
A further test has as its system JeKo-1 cells. As to the kind of experiment: Antiproliferative effect, MTS cell viability assay, JeKo-1 cells. Format: cell-based. Particulars: Homo sapiens; JeKo-1 mantle cell lymphoma cells; read-out: IC50 (anti-proliferation) JeKO-1 cells. In short, it runs like this: (§1)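 Steps: seed B-cell lymphoma line; add compound at 0, 0.001, 0.01, 0.1, 1 or 10 μM; incubate 72 h; add MTS and read reduced tetrazolium (formazan) absorbance at 490 nm.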
(In general: Tetrazolium dyes change colour on reduction, which living cells bring about.)

The next test deals with Mino cells. Put plainly: Antiproliferative effect, MTS cell viability assay, Mino cells. Format: cell-based. Particulars: Homo sapiens, Mino mantle cell lymphoma cells, read-out: IC50 (anti-proliferation) Mino cells. In short, it runs like this:
as §1

The mark [1] stands for this setting: read-out: DC50 (BTK degradation), concentration giving 50% reduction of BTK expression level.
Setting [2] is: read-out: Dmax (BTK degradation).

BTK, sequence (Q06187 whole entry): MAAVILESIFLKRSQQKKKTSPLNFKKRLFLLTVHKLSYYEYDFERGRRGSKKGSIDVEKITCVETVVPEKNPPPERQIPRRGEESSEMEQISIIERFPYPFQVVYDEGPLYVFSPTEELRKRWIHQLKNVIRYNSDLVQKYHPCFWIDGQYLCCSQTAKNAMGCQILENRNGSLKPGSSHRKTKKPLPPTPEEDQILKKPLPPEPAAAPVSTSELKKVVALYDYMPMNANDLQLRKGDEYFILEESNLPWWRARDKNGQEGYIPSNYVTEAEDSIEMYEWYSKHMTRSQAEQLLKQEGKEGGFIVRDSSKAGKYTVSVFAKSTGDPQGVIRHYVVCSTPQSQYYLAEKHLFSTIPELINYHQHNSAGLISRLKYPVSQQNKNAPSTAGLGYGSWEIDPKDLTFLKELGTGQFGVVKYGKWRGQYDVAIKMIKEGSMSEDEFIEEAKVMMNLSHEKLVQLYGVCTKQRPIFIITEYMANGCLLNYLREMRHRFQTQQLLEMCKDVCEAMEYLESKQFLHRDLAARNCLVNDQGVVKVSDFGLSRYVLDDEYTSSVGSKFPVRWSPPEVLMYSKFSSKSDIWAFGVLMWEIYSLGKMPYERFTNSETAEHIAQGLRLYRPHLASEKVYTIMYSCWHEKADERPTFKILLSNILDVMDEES

Consider `NC(=O)c1c(-c2ccc(Oc3ccccc3)cc2)nn2c1NCC[C@H]2C1CCN(C(=O)N2CCC(CN3CCN(c4ccc5c(c4)CN(C4CCC(=O)NC4=O)C5=O)CC3)CC2)CC1` (stereo partly drawn) [Compound 292, (7S)-7-(1-(4-((4-(2-(2,6-dioxopiperidin-3-yl)-1-oxoisoindolin-5-yl)piperazin-1-yl)methyl)piperidine-1-carbonyl)piperidin-4-yl)-2-(4-phenoxyphenyl)-4,5,6,7-tetrahydropyrazolo[1,5-a]pyrimidine-3-carboxamide], for which the Dmax – broadly, the largest share of the target that was removed – on BTK was more than 90%. Also, on BTK (BTK degradation), the DC50 – broadly, the concentration at which degradation of the target reaches its halfway point – was less than 10 nM. Besides, the IC50 in the test on JeKo-1 cells and with Mino cells (MINO) was less than 1000 nM each time.

Take `NC(=O)c1c(-c2ccc(Oc3ccccc3)cc2)nn2c1NCCC2C1CCN(CC2CCN(CCN3CCN(c4ccc5c(c4)CN(C4CCC(=O)NC4=O)C5=O)CC3)CC2)CC1` (stereo not drawn) [Compound 316, 7-(1-((1-(2-(4-(2-(2,6-dioxopiperidin-3-yl)-1-oxoisoindolin-5-yl)piperazin-1-yl)ethyl)piperidin-4-yl)methyl)piperidin-4-yl)-2-(4-phenoxyphenyl)-4,5,6,7-tetrahydropyrazolo[1,5-a]pyrimidine-3-carboxamide]: the Dmax on BTK is more than 75%. On BTK (BTK degradation), this compound registered a DC50 of 10 to 50 nM. The IC50 in the test with JeKo-1 cells and in the test with Mino cells (MINO) was 1000 to 10000 nM in each case.

At BTK, `NC(=O)c1c(-c2ccc(Oc3ccccc3)cc2)nn2c1NCCC2C1CCN(C2CCN(C(=O)N3CCC(CC4CCN(c5ccc6c(c5)CN(C5CCC(=O)NC5=O)C6=O)CC4)CC3)CC2)CC1` (stereo not drawn) [Compound 354, 7-(1′-(4-((1-(2-(2,6-dioxopiperidin-3-yl)-1-oxoisoindolin-5-yl)piperidin-4-yl)methyl)piperidine-1-carbonyl)-[1,4′-bipiperidin]-4-yl)-2-(4-phenoxyphenyl)-4,5,6,7-tetrahydropyrazolo[1,5-a]pyrimidine-3-carboxamide] returned a Dmax of more than 90%. The compound also showed a DC50 on BTK (BTK degradation) of 10 to 50 nM. Also, the IC50 in the test on JeKo-1 cells and with Mino cells (MINO) was 1000 to 10000 nM in each case.

Take `NC(=O)c1c(-c2ccc(Oc3ccccc3)cc2)nn2c1NCCC2C1CCN(C(=O)N2CCC(CN3CCC(c4ccc5c(c4)C(=O)N(C4CCC(=O)NC4=O)C5=O)CC3)CC2)CC1` (stereo not drawn) [Compound 279, 7-(1-(4-((4-(2-(2,6-dioxopiperidin-3-yl)-1,3-dioxoisoindolin-5-yl)piperidin-1-yl)methyl)piperidine-1-carbonyl)piperidin-4-yl)-2-(4-phenoxyphenyl)-4,5,6,7-tetrahydropyrazolo[1,5-a]pyrimidine-3-carboxamide]: the Dmax at BTK is more than 90%. At BTK (BTK degradation), this compound showed a DC50 of 10 to 50 nM. The IC50 in the test with JeKo-1 cells and in the test on Mino cells (MINO) was 1000 to 10000 nM throughout.

For the compound `Nc1ncnc2c1c(-c1ccc(Oc3ccccc3)cc1)nn2C1CCN(C(=O)N2CC(N3CCN(c4ccc5c(c4)CN([C@@H]4CCC(=O)NC4=O)C5=O)CC3)C2)CC1` [Compound 486, (R)-3-(5-(4-(1-(4-(4-amino-3-(4-phenoxyphenyl)-1H-pyrazolo[3,4-d]pyrimidin-1-yl)piperidine-1-carbonyl)azetidin-3-yl)piperazin-1-yl)-1-oxoisoindolin-2-yl)piperidine-2,6-dione], the DC50 on BTK (setting [1]) was less than 10 nM. Also, the maximal degradation (Dmax) at BTK (setting [2]) was more than 90%. Further, the IC50 with JeKo-1 cells and with Mino cells (MINO) was less than 1000 nM throughout.

Consider `Nc1ncnc2c1c(-c1ccc(Oc3ccccc3)cc1)nn2C1CCN(C(=O)NCCN2CCN(c3ccc4c(c3)C(=O)N(C3CCC(=O)NC3=O)C4=O)CC2)CC1` (stereo not drawn) [Compound 520, 4-(4-amino-3-(4-phenoxyphenyl)-1H-pyrazolo[3,4-d]pyrimidin-1-yl)-N-(2-(4-(2-(2,6-dioxopiperidin-3-yl)-1,3-dioxoisoindolin-5-yl)piperazin-1-yl)ethyl)piperidine-1-carboxamide], for which the DC50 at BTK (setting [1]) is 10 to 50 nM. Also, on BTK (setting [2]), the Dmax was more than 90%. For the same compound, the IC50 with JeKo-1 cells and with Mino cells (MINO) was less than 1000 nM in each case.

With `Nc1ncnc2c1c(-c1ccc(Oc3ccccc3)cc1)nn2[C@@H]1CCCN(C(=O)N2CC(N3CCN(c4ccc5c(c4)CN([C@@H]4CCC(=O)NC4=O)C5=O)CC3)C2)C1` [Compound 492, (R)-3-(5-(4-(1-((R)-3-(4-amino-3-(4-phenoxyphenyl)-1H-pyrazolo[3,4-d]pyrimidin-1-yl)piperidine-1-carbonyl)azetidin-3-yl)piperazin-1-yl)-1-oxoisoindolin-2-yl)piperidine-2,6-dione], on BTK (setting [1]), the DC50 is less than 10 nM. At BTK (setting [2]), the Dmax is more than 90%. For the same compound, the IC50 with JeKo-1 cells and in the test with Mino cells (MINO) was less than 1000 nM in each case.

For `Nc1ncnc2c1c(-c1ccc(Oc3ccccc3)cc1)nn2[C@@H]1CCCN(C(=O)CCCN2CCN(c3ccc4c(c3)C(=O)N(C3CCC(=O)NC3=O)C4=O)CC2)C1` (stereo partly drawn) [Compound 525, 5-(4-(4-((R)-3-(4-amino-3-(4-phenoxyphenyl)-1H-pyrazolo[3,4-d]pyrimidin-1-yl)piperidin-1-yl)-4-oxobutyl)piperazin-1-yl)-2-(2,6-dioxopiperidin-3-yl)isoindoline-1,3-dione], the DC50 on BTK (setting [1]) was less than 10 nM. For the same compound, at BTK (setting [2]), the Dmax is more than 90%. For the same compound, the IC50 in the test on JeKo-1 cells is less than 1000 nM; with Mino cells (MINO) it was 1000 to 10000 nM.

For `NC(=O)c1c(-c2ccc(Oc3ccccc3)cc2)nn2c1NCCC2C1CCN(C2CCN(CCC3CCN(c4ccc5c(c4)C(=O)N(C4CCC(=O)NC4=O)C5=O)CC3)CC2)CC1` (stereo not drawn) [Compound 309, 7-(1′-(2-(1-(2-(2,6-dioxopiperidin-3-yl)-1,3-dioxoisoindolin-5-yl)piperidin-4-yl)ethyl)-[1,4′-bipiperidin]-4-yl)-2-(4-phenoxyphenyl)-4,5,6,7-tetrahydropyrazolo[1,5-a]pyrimidine-3-carboxamide], at BTK, the Dmax was more than 75%. On BTK (BTK degradation), this compound returned a DC50 of 10 to 50 nM. In addition, the IC50 in the test with JeKo-1 cells and in the test on Mino cells (MINO) was more than 10000 nM in each case.

In the case of `Nc1ncnc2c1c(-c1ccc(Oc3ccccc3)cc1)nn2C1CCN(CCN2CCC(Sc3ccc4c(c3)CN(C3CCC(=O)NC3=O)C4=O)CC2)CC1` (stereo not drawn) [Compound 472, 3-(5-((1-(2-(4-(4-amino-3-(4-phenoxyphenyl)-1H-pyrazolo[3,4-d]pyrimidin-1-yl)piperidin-1-yl)ethyl)piperidin-4-yl)thio)-1-oxoisoindolin-2-yl)piperidine-2,6-dione], the DC50 on BTK (setting [1]) fell in the range of 10 to 50 nM. The Dmax on BTK (setting [2]) was more than 75%. The IC50 in the test with JeKo-1 cells and in the test with Mino cells (MINO) was 1000 to 10000 nM each time.

As for `Nc1ncnc2c1c(-c1ccc(Oc3ccccc3)cc1)nn2C1CCN(CC2CCN(CC3CCN(c4ccc5c(c4)oc(=O)n5C4CCC(=O)NC4=O)CC3)C2)CC1` (stereo not drawn) [Compound 541, 3-(6-(4-((3-((4-(4-amino-3-(4-phenoxyphenyl)-1H-pyrazolo[3,4-d]pyrimidin-1-yl)piperidin-1-yl)methyl)pyrrolidin-1-yl)methyl)piperidin-1-yl)-2-oxobenzo[d]oxazol-3(2H)-yl)piperidine-2,6-dione], the DC50 on BTK (setting [1]) lay in the range of 10 to 50 nM. Besides, the Dmax at BTK (setting [2]) is more than 75%. In addition, the IC50 with JeKo-1 cells and in the test with Mino cells (MINO) was 1000 to 10000 nM throughout.

With `Nc1ncnc2c1c(-c1ccc(Oc3ccccc3)cc1)nn2C1CCN(CCN2CCC(CN3CCN(c4ccc(N5CCC(=O)NC5=O)cc4)CC3)C2)CC1` (stereo not drawn) [Compound 549, 1-(4-(4-((1-(2-(4-(4-amino-3-(4-phenoxyphenyl)-1H-pyrazolo[3,4-d]pyrimidin-1-yl)piperidin-1-yl)ethyl)pyrrolidin-3-yl)methyl)piperazin-1-yl)phenyl)dihydropyrimidine-2,4(1H,3H)-dione], on BTK (setting [1]), the 50% degradation concentration (DC50) was less than 10 nM. Further, the Dmax on BTK (setting [2]) was more than 90%. In addition, the IC50 with JeKo-1 cells and with Mino cells (MINO) was less than 1000 nM in each case.

In turn, `NC(=O)c1c(-c2ccc(Oc3ccccc3)cc2)nn2c1NCC[C@H]2C1CCN(C2CCN(C(=O)N3CCC(N4CCC(c5ccc6c(c5)CN(C5CCC(=O)NC5=O)C6=O)CC4)CC3)CC2)CC1` (stereo partly drawn) [Compound 388, (7S)-7-(1′-(4-(2-(2,6-dioxopiperidin-3-yl)-1-oxoisoindolin-5-yl)-[1,4′-bipiperidine]-1′-carbonyl)-[1,4′-bipiperidin]-4-yl)-2-(4-phenoxyphenyl)-4,5,6,7-tetrahydropyrazolo[1,5-a]pyrimidine-3-carboxamide] showed a Dmax on BTK of more than 90%. On BTK (BTK degradation), this compound had a DC50 of 10 to 50 nM. Moreover, the IC50 in the test with JeKo-1 cells was 1000 to 10000 nM; in the test with Mino cells (MINO), less than 1000 nM.

For `Nc1ncnc2c1c(-c1ccc(Oc3ccccc3)cc1)nn2C1CCN(CCN2CCC(CN3CCN(c4ccc5c(c4)C(=O)N(C4CCC(=O)NC4=O)C5=O)CC3)C2)CC1` (stereo not drawn) [Compound 455, 5-(4-((1-(2-(4-(4-amino-3-(4-phenoxyphenyl)-1H-pyrazolo(3,4-d)pyrimidin-1-yl)piperidin-1-yl)ethyl)pyrrolidin-3-yl)methyl)piperazin-1-yl)-2-(2,6-dioxopiperidin-3-yl)isoindoline-1,3-dione], the DC50 on BTK (setting [1]) is less than 10 nM. The Dmax at BTK (setting [2]) was more than 90%. In addition, the IC50 with JeKo-1 cells and in the test on Mino cells was less than 1000 nM throughout.

`NC(=O)c1c(-c2ccc(Oc3ccccc3)cc2)nn2c1NCCC2C1CCN(CC2CCN(C(=O)N3CCN(CC4CCN(c5ccc6c(c5)CN(C5CCC(=O)NC5=O)C6=O)CC4)CC3)CC2)CC1` (stereo not drawn) [Compound 372, 7-(1-((1-(4-((1-(2-(2,6-dioxopiperidin-3-yl)-1-oxoisoindolin-5-yl)piperidin-4-yl)methyl)piperazine-1-carbonyl)piperidin-4-yl)methyl)piperidin-4-yl)-2-(4-phenoxyphenyl)-4,5,6,7-tetrahydropyrazolo[1,5-a]pyrimidine-3-carboxamide] had a Dmax at BTK of more than 90%. This compound came in with a DC50 on BTK (BTK degradation) of 10 to 50 nM. The IC50 in the test on JeKo-1 cells is less than 1000 nM; in the test on Mino cells (MINO), 1000 to 10000 nM.
